The source of these data is patent publication US10428106B2, “Phosphate replacement mRNA cap analogs” (ModernaTX, Inc., priority 2015, dated 2019).

Structures are written as SMILES.

What is called IC50 is the concentration needed to halve the response being measured. The Kd is a measure of binding affinity in units of concentration.

Experiment [1] has as its system HeLa Lysate. Put plainly: Cell free translation assay of hEPO mRNAs carrying different caps. Format: biochemical. As to conditions: hEPO levels after 3 hours; mRNA carrying the cap; modRNA with 5-methoxy uridine.
Experiment [2] deals with human primary hepatocytes. Put plainly: Cell-based expression assay in human primary hepatocytes. As to conditions: normalized expression level of mRNA carrying the cap, 5-methoxy uridine; Compound 7 mRNA Cap0-like, others Cap1-like.
For the next experiment, the target named is T1, eIF4E (Homo sapiens, UniProt P06730).
T1 construct: HNAVIpeptTEVeIF4E 32-217(Biotinylated)
Put plainly: Binding affinities to eIF4E using surface plasmon resonance (SPR). For orientation: SPR reads the build-up and loss of mass on a sensor chip optically.

The test system of the next experiment is CD-1 mice. Put plainly: In vivo expression assay of hEPO mRNA in MC3-based LNP. Conditions: i.v. bolus 0.05 mg/kg, 6 h after injection, mRNA carrying the cap, 5-methoxy uridine. On the procedure:
mRNAs encoding hEPO are synthesized according to the method described in Example 2 above, co-transcriptionally incorporating cap analogs of the disclosure. […] A MC3-based lipid nanoparticle (LNP) formulation of the synthesized mRNA is produced, and is intravenously administered to CD-1 mice (n=3) at a bolus dose of 0.05 mg/kg. The level of hEPO was tested at 6 h, 24 h, or 48 h after injection.

Experiment [3] concerns HeLa Lysate. Put plainly: Cap competition assay in kinetic cell free in vitro translation (free cap analogs vs Cap1-tipped eGFP modRNA). Format: biochemical. Conditions: free cap analog 0-100 uM; modRNA with 1-methyl-pseudouridine and 5-methyl cytidine; fluorescence plateau. The method, then: The in vitro translation assay was conducted with the HeLa 1-step coupled IVT kit (ThermoFisher Scientific, Waltham, Mass.) according to the manufacturer's instructions to assess performance of new cap analogs as free compounds or as an integral part of capped mRNA. Cap analogs with affinity to eIF4E protein may reduce protein synthesis rate in cell-free translation. Further, RNAs containing such cap analogs (“Cap-modRNA”) show different potency of protein synthesis in cell-free translation.
The modified RNAs (“modRNAs”) of eGFP and mCitrine-degron, harboring chemical modifications on either the CAP structures, selected ribose units and/or the bases, were diluted in sterile nuclease-free water to a final amount of 500 ng in 5 uL. […] The in vitro translation reaction was done in a standard 96-well round bottom plate (Corning, Corning, N.Y.), covered with an self-adhesive fluorescence-compatible seal (BioRad, Hercules, Calif.) at 30° C. inside the plate reader Cytation 3 (BioTek, Winooski, Vt.).
The fluorescent signal per reaction increased over time and is considered proportional to the occurring protein synthesis. Each cell-free translation reaction was monitored for 120-180 min with the following settings: eGFP protein—ex. […] The height of the reading head was set to 1 mm above the plate and a reading speed of one per sample every 17 seconds. […]

Setting [4] is: residence time as listed in Table 5.

T1 sequence (P06730 32-217): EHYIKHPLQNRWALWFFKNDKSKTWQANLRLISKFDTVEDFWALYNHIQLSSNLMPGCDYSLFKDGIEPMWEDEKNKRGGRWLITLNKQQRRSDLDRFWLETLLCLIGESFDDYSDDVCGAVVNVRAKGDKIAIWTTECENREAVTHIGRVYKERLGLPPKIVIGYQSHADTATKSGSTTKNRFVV
Protocol for eIF4E: General Outline of the Assay Procedure
A sensor chip SA (GE Healthcare) is docked into a Biacore 3000 instrument.
Compound concentration series are injected over the immobilized protein serially in increasing concentration. Interaction models are fitted globally to the experimental traces, enabling determination of Kd or KD (binding affinity; unit: M) and possibly kon (on-rate, calculated from the association phase; unit: M^−1s^−1) and koff (off-rate, calculated from the dissociation phase; unit: s^−1).
Preparation of Sensor Chip
A sensor chip (SAD5001 or SA) was docked into a Biacore 3000 instrument, washed with 50 mM NaOH, 1M NaCl. Protein eIF4E was diluted in running buffer (50 mM HEPES, 150 mM KCl, 10 mM MgCl2, 2 mM TCEP) to ˜1 μM. The diluted protein solution was injected for 300-600 seconds. Typical capture levels were 5000-6000 RU.
Test compounds were solubilized in ddH2O or DMSO to 10 mM. 100 μM stocks were prepared by 100-fold dilution in running buffer (50 mM HEPES, 150 mM KCl, 10 mM MgCl2). Assay was run with or without 1% DMSO.
Data were analyzed in GeneData. Curve fit was accepted or rejected by looking at the resulting sensorgrams and steady state fits.
Assay has been validated using running buffer with and without DMSO.

Turning to `CO[C@H]1[C@@H](O)[C@H](n2c[n+](C)c3c(=O)[nH]c(N)nc32)O[C@@H]1COP(=O)(O)OP(=O)(O)OP(=O)(O)OC[C@H]1O[C@@H](n2cnc3c(=O)[nH]c(N)nc32)[C@H](O)[C@@H]1O` [ARCA], in the experiment with HeLa Lysate [1], the “CFT (norm to conc. & capping & cap1)” value is reported as 1.93. The “h-primHeps norm to Capping and Cap1” value in experiment [2] was determined as 1.52. Also, the τ at eIF4E (setting [4]) came out at 0.6 s. Further, the “in vivo hEPO normalized to capping and Cap1” value with CD-1 mice was 0.70.
The compound `Cn1c[n+]([C@@H]2O[C@H](COP(=O)(O)OP(=O)([O-])OP(=O)(O)OC[C@H]3O[C@@H](n4cnc5c(=O)[nH]c(N)nc54)[C@H](O)[C@@H]3O)[C@@H](O)[C@H]2O)c2nc(N)[nH]c(=O)c21` [Cap0 (i.e., m7GpppG), m7GpppG] yielded a τ on eIF4E (residence time, inverse of koff, Table 3) of 1.25 s. In the experiment on HeLa Lysate [3], this compound showed an IC50 of 36 µM.
Turning to `CO[C@@H]1[C@H](O)[C@@H](COP(=O)(O)OP(=O)(O)OP(=O)(O)OC[C@H]2O[C@@H]([n+]3cn(C)c4c(=O)[nH]c(N)nc43)[C@H](O)[C@@H]2O)O[C@H]1n1cnc2c(=O)[nH]c(N)nc21` [Cap1, m7GpppG(2′-Om)], the “CFT (norm to conc. & capping & cap1)” value in the experiment with HeLa Lysate [1] came out at 1.00. Besides, in experiment [2], the “h-primHeps norm to Capping and Cap1” value is recorded as 1.00. On eIF4E (setting [4]), this compound came in with a τ of 1.3 s. Besides, the “in vivo hEPO normalized to capping and Cap1” value with CD-1 mice is recorded as 1.00.
Take `C[n+]1cn([C@@H]2O[C@H](COP(=O)([O-])OCCN(CCOP(=O)([O-])OC[C@H]3O[C@@H](n4c[n+](C)c5c(=O)[nH]c(N)nc54)[C@H](O)[C@@H]3O)C(=O)OC(C)(C)C)[C@@H](O)[C@H]2O)c2nc(N)[nH]c(=O)c21` [Compound 25]: binding on eIF4E (SPR, Biacore 3000, captured biotinylated eIF4E, Table 3) was put at a Kd of 300 µM.
